The structures appear in SMILES notation. Like-named read-outs stand apart in the source and are kept apart here.

We go through 3 molecules from patent publication US20240066045A1, “SEMICARBAZONE-BASED SAPONIN CONJUGATE” (priority 2020, published 2024).

Data set [1] deals with HeLa cells. The experiment in a line: Cell killing assay (MTS): saponin titrated on fixed non-effective concentration of targeted toxin (endosomal escape enhancing activity). The format is cell-based. The note with it: for IC50: read-out: IC50 nM (Activity; + 5 pM EGFdianthin), HeLa cells, + 5 pM EGFdianthin. As for the experimental part: (§1) Cell viability was determined by an MTS-assay, performed according to the manufacturer's instruction (CellTiter 96® AQueous One Solution Cell Proliferation Assay, Promega). Briefly, the MTS solution was diluted 20× in DMEM without phenol red (PAN-Biotech GmbH) supplemented with 10% FBS (PAN-Biotech GmbH). The cells were washed once with 200 μL PBS per well, after which 100 μL diluted MTS solution was added per well. The plate was incubated for approximately 20-30 minutes at 37° C. Subsequently, the optical density at 492 nm was measured on a Thermo Scientific Multiskan FC plate reader (Thermo Scientific). For quantification the background signal of ‘medium only’ wells was subtracted from all other wells, before the ratio of untreated/treated cells was calculated, by dividing the background corrected signal of untreated wells over the background corrected signal of the treated wells.

The test system of data set [2] is A431 cells. The data set is described as above. The format is cell-based. As for the experimental part:
as §1

Data set [3] relates to HeLa cells. The data set is described as follows: Cell toxicity (MTS), saponin alone. The class given is cell-based. How it is done: as §1
In data set [4] the test system is A431 cells. The data set is described as follows: Cell toxicity (MTS), saponin alone. The class given is cell-based. How it is done: as §1
The subject of data set [5] is human red blood cells (RBC). The data set is described as follows: Haemolysis assay. The format is cell-based. The note with it: fresh human red blood cells. As for the experimental part:
Red blood cells (RBCs) were isolated from a buffy coat using a Ficoll gradient. The obtained RBC pellet (˜4-5 ml) was washed 2× with 50 ml DPBS (without Ca^2+/Mg^2+, PAN-Biotech GmbH). Cells were pelleted by centrifugation for 10 min, 800×g at RT. RBC were counted and resuspended at 500.000.000 c/ml in DPBS (without Ca^2+/Mg^2+), based on total cell count. SO1861-linker dilutions were prepared in DPBS (with Ca^2+/Mg^2+, PAN-Biotech GmbH), at 1.11× final strength. For positive lysis control a 0.02% Triton-X100 solution was prepared in DPBS^+/+. Of all compound solutions 135 μl was dispensed/well in a 96 well V-bottom plate. To this 15 μl RBC suspension was added and mixed shortly (10 sec—600 rpm). The plate was incubated 30 min at RT, with gentle agitation. Afterwards the plate was spun for 10 min at 800×g to pellet the RBC and 100-120 μl supernatant was transferred to a standard 96 wp. Subsequently, the OD at 405 nm was measured on a Thermo Scientific Multiskan FC plate reader (Thermo Scientific). For quantification the background signal of ‘DPBS^+/+ only’ wells was subtracted from all other wells before the percentage of hemolysis was calculated in comparison to 0.02% Triton-X100, by dividing the background corrected signal of treated wells over the background corrected signal of the 0.02% Triton-X100 wells (×100).

The test system of a further data set is HSP27 mRNA in A431 cells. The experiment in a line: HSP27 gene silencing (HSP27 mRNA expression, qPCR). To be noted: saponin titrated + 50 nM Trastuzumab-HSP27BNA. The format is cell-based. From the text:
RNA from cells was isolated and analysed according to standard protocols (Biorad).

A short description of data set [6]: CMC determination (ANS fluorescence). The class given is physicochemical. As for the experimental part: The critical micellar concentration (CMC) of saponins derived from Saponaria Officinalis (SO) was determined by the method of DeVendittis et al. (www.sciencedirect.com/science/article/pii/0003269781900063, doi.org/10.1016/0003-2697(81)90006-3, Analytical Biochemistry, Volume 115, Issue 2, August 1981, Pages 278-286) as follows: The emission spectrum of 8-Anilinonaphthalene-1-sulfonic acid (ANS) in either purified water (MQ) or PBS (Dulbecco's PBS+/+) was determined at dry weight concentrations of saponins ranging from 1 to 1400 μM to cover the range below and above the CMC. Above the CMC, the fluorescence yield of ANS increases and the wavelength of maximum emission decreases due to portioning of the fluorescent dye into micelles. Fluorescence yields were recorded on a Fluoroskan Ascent FL (Thermo Scientific) at an excitation wavelength of 355 nm, and an emission wavelength of 460 nm. 6 μg at a concentration of 75.86 μM of ANS were used per sample and measurement.

On to `CC(=O)OC1C(C)OC(OC2C(C)OC(OC(=O)[C@]34CCC(C)(C)CC3C3=CCC5[C@@]6(C)CC[C@H](OC7OC(C(=O)O)C(O)C(OC8OCC(O)C(O)C8O)C7OC7OC(CO)C(O)C(O)C7O)[C@@](C)(/C=N/NC(=O)CCCCCN7C(=O)C=CC7=O)C6CC[C@@]5(C)[C@]3(C)C[C@H]4O)C(OC3OC(C)C(OC4OCC(O)C(OC5OC(CO)C(O)C(O)C5O)C4O)C(O)C3O)C2O)C(O)C1OC1OCC(O)C(O)C1O` (stereo partly drawn) [SO1861-EMCH], for which the IC50 (as a rule, the midpoint of a concentration-inhibition curve) in the data set with HeLa cells [1] was 4000 nM; in the data set on A431 cells [2] (+ 50 pM Trastuzumab-saporin, read-out: IC50 cell killing), 2500 nM; in the data set on A431 cells [2] (read-out: IC50 nM (Activity; + 5 pM EGFdianthin), + 5 pM EGFdianthin), 3000 nM; with HeLa cells [3], greater than 100 µM; in the data set on A431 cells [4] it was greater than 30 µM; in data set [5] it was greater than 500 µM.

As to `CC(=O)OC1C(C)OC(OC2C(C)OC(OC(=O)[C@]34CCC(C)(C)CC3C3=CCC5[C@@]6(C)CC[C@H](OC7OC(C(=O)O)C(O)C(OC8OCC(O)C(O)C8O)C7OC7OC(CO)C(O)C(O)C7O)[C@@](C)(C=NNC(=O)N7CCN(C(=O)CCCCCN8C(=O)C=CC8=O)CC7)C6CC[C@@]5(C)[C@]3(C)C[C@H]4O)C(OC3OC(C)C(OC4OCC(O)C(OC5OC(CO)C(O)C(O)C5O)C4O)C(O)C3O)C2O)C(O)C1OC1OCC(O)C(O)C1O` (stereo partly drawn) [SO1861-SC-Mal], the half-inhibitory concentration (IC50) in the data set on HSP27 mRNA in A431 cells was 0.6 µM; in the data set with HeLa cells [3], greater than 100 µM; in data set [5] it was 250 µM. In addition, the CMC in data set [6] (listed as SO1861-Semicarbazone Mal) and in data set [6] (listed as SO1861-semicarbazone Mal) was greater than 800 µM each time.

For `CC(=O)O[C@H]1[C@H](O[C@@H]2OC[C@@H](O)[C@H](O)[C@H]2O)[C@@H](O)[C@H](O[C@@H]2[C@H](O)[C@@H](O[C@@H]3O[C@@H](C)[C@H](O[C@@H]4OC[C@@H](O)[C@H](O[C@@H]5O[C@H](CO)[C@@H](O)[C@H](O)[C@H]5O)[C@H]4O)[C@@H](O)[C@H]3O)[C@H](OC(=O)[C@]34CCC(C)(C)C[C@H]3C3=CC[C@@H]5[C@@]6(C)CC[C@H](O[C@@H]7O[C@H](C(=O)O)[C@@H](O)[C@H](O[C@@H]8OC[C@@H](O)[C@H](O)[C@H]8O)[C@H]7O[C@@H]7O[C@H](CO)[C@H](O)[C@H](O)[C@H]7O)[C@@](C)(C=O)[C@@H]6CC[C@@]5(C)[C@]3(C)C[C@H]4O)O[C@@H]2C)O[C@@H]1C` [SO1861], the “activity compared with the SO1861 derivatives” value with HeLa cells [1] (HeLa and A431, + 5 pM EGFdianthin or 10 pM cetuximab-saporin or 50 pM Trastuzumab-saporin) is listed as “strongest activity”. The IC50 in the data set with HeLa cells [1] (Homo sapiens) was 500 nM; with A431 cells [2] (Homo sapiens, A-431, read-out: IC50 nM (Activity; + 5 pM EGFdianthin), + 5 pM EGFdianthin), 300 nM; in the data set on HeLa cells [3] (Homo sapiens), 9 µM; in the data set with A431 cells [4] (Homo sapiens, A-431), 2 µM; in data set [5] (Erythrocyte), 10 µM. The molecule further yielded a CMC in data set [6] of 120 µM.
